From patent US12662476B2, “Herbicidal thiazole compounds” (SYNGENTA CROP PROTECTION AG, priority 2019, dated 2026)

Key:
Type in all cases: in vivo
[1] = tested on: Amaranthus retoflexus (AMARE); assay: Post-emergence herbicidal glasshouse test; conditions: sprayed after 8 days cultivation, 250 g/ha, evaluated after 13 days, five-point scale
Experimental: (§1) Seeds of a variety of test species are sown in standard soil in pots Amaranthus retoflexus (AMARE), Echinochloa crus-galli (ECHCG), Setaria faberi (SETFA)). After cultivation for one day (pre-emergence) or after 8 days cultivation (post-emergence) under controlled conditions in a glasshouse (at 24/16° C., day/night; 14 hours light; 65% humidity), the plants are sprayed with an aqueous spray solution derived from the formulation of the technical active ingredient in acetone/water (50:50) solution containing 0.5% Tween™ 20 (polyoxyethylene sorbitan monolaurate, CAS RN 9005-64-5). Compounds are applied at 250 g/ha unless otherwise stated. The test plants are then grown in a glasshouse under controlled conditions in a glasshouse (at 24/16° C., day/night; 14 hours light; 65% humidity) and watered twice daily. After 13 days for pre- and post-emergence, the test is evaluated for the percentage damage caused to the plant. The biological activities are shown in the following table on a five-point scale (5=81-100%; 4=61-80%; 3=41-60%; 2=21-40%; 1=0-20%).

[2] = tested on: Setaria faberi (SETFA); assay: Post-emergence herbicidal glasshouse test; conditions: sprayed after 8 days cultivation, 250 g/ha, evaluated after 13 days, five-point scale
Experimental: as §1

[3] = tested on: Echinochloa crus-galli (ECHCG); assay: Post-emergence herbicidal glasshouse test; conditions: sprayed after 8 days cultivation, 250 g/ha, evaluated after 13 days, five-point scale
Experimental: as §1

[4] = tested on: Amaranthus retoflexus (AMARE); assay: Pre-emergence herbicidal glasshouse test; conditions: sprayed after one day cultivation, 250 g/ha, evaluated after 13 days, five-point scale
Experimental: as §1

[5] = tested on: Setaria faberi (SETFA); assay: Pre-emergence herbicidal glasshouse test; conditions: sprayed after one day cultivation, 250 g/ha, evaluated after 13 days, five-point scale
Experimental: as §1

[6] = tested on: Echinochloa crus-galli (ECHCG); assay: Pre-emergence herbicidal glasshouse test; conditions: sprayed after one day cultivation, 250 g/ha, evaluated after 13 days, five-point scale
Experimental: as §1

## Fc1cccc(Oc2ncc(C(F)F)s2)c1-c1cc(C(F)F)no1 [Compound 1.001, 3-(difluoromethyl)-5-[2-[5-(difluoromethyl)thiazol-2-yl]oxy-6-fluoro-phenyl]isoxazole]
[1]
  percentage damage caused to the plant, AMARE: 5 (5=81-100%)
[2]
  percentage damage caused to the plant, SETFA: 5 (5=81-100%)
[3]
  percentage damage caused to the plant, ECHCG: 5 (5=81-100%)
[4]
  percentage damage caused to the plant, AMARE: 5 (5=81-100%)
[5]
  percentage damage caused to the plant, SETFA: 5 (5=81-100%)
[6]
  percentage damage caused to the plant, ECHCG: 5 (5=81-100%)

## C=Cc1cnc(Oc2cccc(F)c2-c2cc(C(F)F)no2)s1 [Compound 1.002, 3-(difluoromethyl)-5-[2-fluoro-6-(5-vinylthiazol-2-yl)oxy-phenyl]isoxazole]
[1]
  percentage damage caused to the plant, AMARE: 2 (2=21-40%)
[2]
  percentage damage caused to the plant, SETFA: 4 (4=61-80%)
[3]
  percentage damage caused to the plant, ECHCG: 4 (4=61-80%)
[4]
  percentage damage caused to the plant, AMARE: 1 (1=0-20%)
[5]
  percentage damage caused to the plant, SETFA: 2 (2=21-40%)
[6]
  percentage damage caused to the plant, ECHCG: 4 (4=61-80%)

## Fc1cccc(Oc2nccs2)c1-c1cc(C(F)F)no1 [Compound 1.003]
[1]
  percentage damage caused to the plant, AMARE: 2 (2=21-40%)
[2]
  percentage damage caused to the plant, SETFA: 2 (2=21-40%)
[3]
  percentage damage caused to the plant, ECHCG: 1 (1=0-20%)
[4]
  percentage damage caused to the plant, AMARE: 5 (5=81-100%)
[5]
  percentage damage caused to the plant, SETFA: 2 (2=21-40%)
[6]
  percentage damage caused to the plant, ECHCG: 2 (2=21-40%)

## Fc1cccc(Oc2ncc(Br)s2)c1-c1cc(C(F)F)no1 [Compound 1.004, 5-[2-(5-bromothiazol-2-yl)oxy-6-fluoro-phenyl]-3-(difluoromethyl)isoxazole]
[1]
  percentage damage caused to the plant, AMARE: 5 (5=81-100%)
[2]
  percentage damage caused to the plant, SETFA: 5 (5=81-100%)
[3]
  percentage damage caused to the plant, ECHCG: 5 (5=81-100%)
[4]
  percentage damage caused to the plant, AMARE: 5 (5=81-100%)
[5]
  percentage damage caused to the plant, SETFA: 5 (5=81-100%)
[6]
  percentage damage caused to the plant, ECHCG: 4 (4=61-80%)

## Cc1cnc(Oc2cccc(F)c2-c2cc(C(F)F)no2)s1 [Compound 1.005, 3-(difluoromethyl)-5-[2-fluoro-6-(5-methylthiazol-2-yl)oxy-phenyl]isoxazole]
[1]
  percentage damage caused to the plant, AMARE: 4 (4=61-80%)
[2]
  percentage damage caused to the plant, SETFA: 4 (4=61-80%)
[3]
  percentage damage caused to the plant, ECHCG: 4 (4=61-80%)
[4]
  percentage damage caused to the plant, AMARE: 5 (5=81-100%)
[5]
  percentage damage caused to the plant, SETFA: 4 (4=61-80%)
[6]
  percentage damage caused to the plant, ECHCG: 3 (3=41-60%)

## Fc1cccc(Oc2ncc(Cl)s2)c1-c1cc(C(F)F)no1 [Compound 1.006]
[1]
  percentage damage caused to the plant, AMARE: 5 (5=81-100%)
[2]
  percentage damage caused to the plant, SETFA: 5 (5=81-100%)
[3]
  percentage damage caused to the plant, ECHCG: 4 (4=61-80%)
[4]
  percentage damage caused to the plant, AMARE: 5 (5=81-100%)
[5]
  percentage damage caused to the plant, SETFA: 5 (5=81-100%)
[6]
  percentage damage caused to the plant, ECHCG: 5 (5=81-100%)

## Fc1cccc(Oc2nc(Br)cs2)c1-c1cc(C(F)F)no1 [Compound 1.007]
[1]
  percentage damage caused to the plant, AMARE: 5 (5=81-100%)
[2]
  percentage damage caused to the plant, SETFA: 5 (5=81-100%)
[3]
  percentage damage caused to the plant, ECHCG: 4 (4=61-80%)
[4]
  percentage damage caused to the plant, AMARE: 5 (5=81-100%)
[5]
  percentage damage caused to the plant, SETFA: 5 (5=81-100%)
[6]
  percentage damage caused to the plant, ECHCG: 3 (3=41-60%)

## Fc1cccc(Oc2nc(Cl)cs2)c1-c1cc(C(F)F)no1 [Compound 1.008]
[1]
  percentage damage caused to the plant, AMARE: 4 (4=61-80%)
[2]
  percentage damage caused to the plant, SETFA: 1 (1=0-20%)
[3]
  percentage damage caused to the plant, ECHCG: 2 (2=21-40%)
[4]
  percentage damage caused to the plant, AMARE: 3 (3=41-60%)
[5]
  percentage damage caused to the plant, SETFA: 3 (3=41-60%)
[6]
  percentage damage caused to the plant, ECHCG: 1 (1=0-20%)

## Fc1cccc(Oc2nc(C(F)F)cs2)c1-c1cc(C(F)F)no1 [Compound 1.009]
[1]
  percentage damage caused to the plant, AMARE: 4 (4=61-80%)
[2]
  percentage damage caused to the plant, SETFA: 2 (2=21-40%)
[3]
  percentage damage caused to the plant, ECHCG: 2 (2=21-40%)
[4]
  percentage damage caused to the plant, AMARE: 4 (4=61-80%)
[5]
  percentage damage caused to the plant, SETFA: 5 (5=81-100%)
[6]
  percentage damage caused to the plant, ECHCG: 3 (3=41-60%)

## Fc1cccc(-c2cc(C(F)F)no2)c1Oc1ncc(Cl)s1 [Compound 1.010]
[1]
  percentage damage caused to the plant, AMARE: 4 (4=61-80%)
[2]
  percentage damage caused to the plant, SETFA: 4 (4=61-80%)
[3]
  percentage damage caused to the plant, ECHCG: 3 (3=41-60%)
[4]
  percentage damage caused to the plant, AMARE: 5 (5=81-100%)
[5]
  percentage damage caused to the plant, SETFA: 4 (4=61-80%)
[6]
  percentage damage caused to the plant, ECHCG: 4 (4=61-80%)

## Cc1cccc(-c2cc(C(F)F)no2)c1Oc1ncc(Cl)s1 [Compound 1.011]
[1]
  percentage damage caused to the plant, AMARE: 2 (2=21-40%)
[2]
  percentage damage caused to the plant, SETFA: 3 (3=41-60%)
[3]
  percentage damage caused to the plant, ECHCG: 3 (3=41-60%)
[4]
  percentage damage caused to the plant, AMARE: 4 (4=61-80%)
[5]
  percentage damage caused to the plant, SETFA: 1 (1=0-20%)
[6]
  percentage damage caused to the plant, ECHCG: 4 (4=61-80%)

## N#Cc1cccc(Oc2ncc(Cl)s2)c1-c1cc(C(F)F)no1 [Compound 1.012]
[1]
  percentage damage caused to the plant, AMARE: 5 (5=81-100%)
[2]
  percentage damage caused to the plant, SETFA: 4 (4=61-80%)
[3]
  percentage damage caused to the plant, ECHCG: 3 (3=41-60%)
[4]
  percentage damage caused to the plant, AMARE: 2 (2=21-40%)
[5]
  percentage damage caused to the plant, SETFA: 5 (5=81-100%)
[6]
  percentage damage caused to the plant, ECHCG: 4 (4=61-80%)

## N#Cc1cccc(Oc2ncc(Br)s2)c1-c1cc(C(F)F)no1 [Compound 1.013]
[1]
  percentage damage caused to the plant, AMARE: 5 (5=81-100%)
[2]
  percentage damage caused to the plant, SETFA: 3 (3=41-60%)
[3]
  percentage damage caused to the plant, ECHCG: 2 (2=21-40%)
[4]
  percentage damage caused to the plant, AMARE: 2 (2=21-40%)
[5]
  percentage damage caused to the plant, SETFA: 4 (4=61-80%)
[6]
  percentage damage caused to the plant, ECHCG: 4 (4=61-80%)

## N#Cc1cccc(Oc2ncc(C(F)F)s2)c1-c1cc(C(F)F)no1 [Compound 1.014]
[1]
  percentage damage caused to the plant, AMARE: 3 (3=41-60%)
[2]
  percentage damage caused to the plant, SETFA: 4 (4=61-80%)
[3]
  percentage damage caused to the plant, ECHCG: 3 (3=41-60%)
[4]
  percentage damage caused to the plant, AMARE: 3 (3=41-60%)
[5]
  percentage damage caused to the plant, SETFA: 5 (5=81-100%)
[6]
  percentage damage caused to the plant, ECHCG: 5 (5=81-100%)

## FC(F)c1cc(-c2c(Cl)cccc2Oc2ncc(C(F)F)s2)on1 [Compound 1.019]
[1]
  percentage damage caused to the plant, AMARE: 4 (4=61-80%)
[2]
  percentage damage caused to the plant, SETFA: 5 (5=81-100%)
[3]
  percentage damage caused to the plant, ECHCG: 4 (4=61-80%)
[4]
  percentage damage caused to the plant, AMARE: 2 (2=21-40%)
[5]
  percentage damage caused to the plant, SETFA: 5 (5=81-100%)
[6]
  percentage damage caused to the plant, ECHCG: 5 (5=81-100%)

## FC(F)c1cc(-c2c(Br)cccc2Oc2ncc(C(F)F)s2)on1 [Compound 1.020]
[1]
  percentage damage caused to the plant, AMARE: 4 (4=61-80%)
[2]
  percentage damage caused to the plant, SETFA: 5 (5=81-100%)
[3]
  percentage damage caused to the plant, ECHCG: 4 (4=61-80%)
[4]
  percentage damage caused to the plant, AMARE: 1 (1=0-20%)
[5]
  percentage damage caused to the plant, SETFA: 5 (5=81-100%)
[6]
  percentage damage caused to the plant, ECHCG: 5 (5=81-100%)

## FC(F)c1cc(-c2ccccc2Oc2ncc(C(F)F)s2)on1 [Compound 1.021]
[1]
  percentage damage caused to the plant, AMARE: 4 (4=61-80%)
[2]
  percentage damage caused to the plant, SETFA: 3 (3=41-60%)
[3]
  percentage damage caused to the plant, ECHCG: 1 (1=0-20%)
[4]
  percentage damage caused to the plant, AMARE: 3 (3=41-60%)
[5]
  percentage damage caused to the plant, SETFA: 4 (4=61-80%)
[6]
  percentage damage caused to the plant, ECHCG: 4 (4=61-80%)

## FC(F)c1cc(-c2c(Cl)cccc2Oc2ncc(Cl)s2)on1 [Compound 1.022]
[1]
  percentage damage caused to the plant, AMARE: 5 (5=81-100%)
[2]
  percentage damage caused to the plant, SETFA: 5 (5=81-100%)
[3]
  percentage damage caused to the plant, ECHCG: 5 (5=81-100%)
[4]
  percentage damage caused to the plant, AMARE: 5 (5=81-100%)
[5]
  percentage damage caused to the plant, SETFA: 5 (5=81-100%)
[6]
  percentage damage caused to the plant, ECHCG: 5 (5=81-100%)
